From patent US5175283A, “Azetidin-2-one derivatives as serine protease inhibitors” (Bristol-Myers Squibb Company, priority 1992, dated 1992)
Where a name gives a salt, the structure may show the parent alone. Read-outs that look alike come from different tables or passages of the source.

Tests used:
Type in all cases: biochemical
human α-thrombin [1] = target: T1, human α-thrombin (Homo sapiens, UniProt P00734); test: Enzyme assay for the inhibition of thrombin (s-2238 substrate); settings: for IC50: 3 min incubation of drug with enzyme, room temperature; for Thrombin k2 /ki (second order rate constant for inactivation of the enzyme): human α-thrombin, s-2238, pH 7.4, room temperature
T1 construct: purified human α-thrombin dissolved in thrombin assay buffer
Protocol: 1. Enzyme Assays for the Inhibition of Thrombin The following reagents were used in these assays: Thrombin assay buffer: 145 mM NaCl, 5 mM KCl, 30 mM N-2-hydroxyethyl piperazine-N'-2-ethanesulfonic acid, pH 7.4, 1 mg/ml polyethylene glycol (PEG-8000). 3 mM D-Phe-Pip-Arg-p-nitroanilide (s-2238) in H2 O. 3 U/ml purified human α-thrombin dissolved in thrombin assay buffer. Inhibitors to be tested were dissolved in H2 O, methanol, or DMSO just prior to use. Assay Procedure To each well in a 96-well microtiter plate, 270 μl of assay buffer was added. Human α-thrombin (10 μl of 3 U/ml) was added, then 10 μl of inhibitor were added and mixed. The samples were incubated at room temperature for a defined period of time (3 min for initial IC50 determinations). The enzymic reaction was started with 10 μl of 3 mM s-2238 substrate and continued at room temperature. The change in optical density was measured at 405 nm. A kinetic microplate reader (Molecular Devices Corporation Vmax) was used to measure the change in optical density over time. Results are reported in Table 1 as IC50 values, i.e., the drug concentration in mole/liter which caused 50% inhibition of the enzyme activity (after incubation of the drug with the enzyme for 3 min). Alternatively, results are also reported in Table 1 expressed as k2 /ki which is the second order rate constant in per mole per minute for inactivation time of the enzyme [Kitz, et al., J. Biol. Chem., 237, 3245 (1962)].

[2] = target: T2, bovine pancreatic trypsin (Bos taurus, UniProt P00760); test: Enzyme assay for the inhibition of trypsin (Z-Val-Gly-Arg-pNA substrate)
T2 construct: purified bovine pancreatic trypsin dissolved in trypsin assay buffer
T2 sequence (P00760 24-246): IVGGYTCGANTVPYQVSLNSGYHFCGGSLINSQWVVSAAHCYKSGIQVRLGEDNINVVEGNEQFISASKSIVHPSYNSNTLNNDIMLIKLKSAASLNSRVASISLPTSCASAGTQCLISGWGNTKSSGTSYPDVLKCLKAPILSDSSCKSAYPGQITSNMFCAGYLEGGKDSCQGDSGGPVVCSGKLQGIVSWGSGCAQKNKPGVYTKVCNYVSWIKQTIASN
Protocol: 2. Enzyme Assays for the Inhibition of Trypsin
The following reagents were used in these assays:
Trypsin assay buffer: 2 mM CaCl2, 50 mM Tris/Cl pH 8.0.
3 mM Z-Val-Gly-Arg-pNA (Chromzyme TRy) dissolved in H2 O.
6 μg/ml of purified bovine pancreatic trypsin dissolved in trypsin assay buffer.
Inhibitors to be tested were dissolved in H2 O, methanol or DMSO just prior to use.
To each well in a 96-well microtiter plate, 270 μl of assay buffer was added. Bovine trypsin (10 μl of 6 μg/ml) was added. Inhibitor (10 μl ) was added, mixed, and then incubated at room temperature for 3 min. The enzymic reaction was started with 10 μl of 3 mM Z-Val-Gly-Arg-pNA substrate. The change in optical density was measured at 405 nm at room temperature. A kinetic microplate reader (Molecular Devices Corporation Vmax) was used to measure the change in optical density over time.
Results are reported in Table 1 as IC50 values, i.e., the drug concentration in mole/liter which caused 50% inhibition of the enzyme activity (after incubation of the drug with the enzyme for 3 min).

human α-thrombin [3] = target: T1, human α-thrombin; test: Concentration required for doubling thrombin clotting time in human plasma; settings: human citrated plasma, 10 U/ml human thrombin; read-out: ED50, drug concentration required to double clotting time
Protocol: Procedure for Determining the Concentration Required for Doubling Thrombin Clotting Time--Clotting Time Assays The following reagents were used in these assays: Owren's Veronal Buffer: 125 mM NaCl, 28.4 mM sodium barbital, pH 7.35. Human citrated plasma obtained from human volunteers or citrated plasma obtained from IP-dosed animals (prepared as described below). 10 NIH Units/ml human α-thrombin in thrombin buffer for use with human plasma. […] The blood was centrifuged at […] (480×g) for 15 min at room temperature (using a Sorvall RT 6000B centrifuge). The plasma was removed, pooled, and aliquoted into small tubes which were stored frozen for later use. Clotting Time Measurement Clotting times were determined by pipetting 0.1 ml of Owren's buffer (pre-warmed 37° C.) and 0.1 ml of human or rat plasma into yellow sample cuvettes. For studies with human plasma 10 U/ml human thrombin (10 ml) was placed in the reservoir assembly station of the MLA 700. (Medical Laboratory Automation, Electra 700 Reservoir Assembly). For rat studies, the human thrombin concentration was 25 U/ml. The cuvettes were vortexed and then placed on the MLA 700 sample wheel. The coagulation timer (MLA 700) automatically dispenses 0.1 ml human thrombin into the sample in each cuvette. Detection of the fibrin clot was determined optically by the MLA 700. Studies were performed to determine the concentration of drug which caused a doubling of the clotting time in human plasma. From standard curves of thrombin activity added to the sample versus the clotting time, the concentration of drug which caused a doubling of the thrombin clotting time corresponded to inhibition of approximately 1/2 of the added thrombin clotting activity. Results are reported in Table 1 as ED50 values, i.e., the drug concentration required to double clotting time.

[4] = 3 min incubation of drug with enzyme, room temperature, pH 8.0, read-out: Trypsin IC50

SMILES	IC50 (human α-thrombin [1]) [nM]	Thrombin k2 /ki (second order rate constant for inactivation of the enzyme) (human α-thrombin [1])	IC50 [2, 4] [nM]	IC (2-fold clotting time) (human α-thrombin [3]) [µM]	IC50 [2] [nM]
COC(=O)[C@H]1[C@H](CCCNC(=N)N)C(=O)N1S(=O)(=O)c1cccc2c(N(C)C)cccc12 (relative stereo) [III, trans-4-Methoxycarbonyl-3-(3-guanidinopropyl)-1-[(5-dimethylamino)-1-naphthalenesulfonyl]-2-azetidinone hydrochloride salt]	16	2.1 × 10^7 m^-1 min^-1	720	50	
COC(=O)[C@H]1[C@H](CCCNC(=N)N)C(=O)N1C(=O)Nc1ccccc1 (relative stereo) [V, trans-4-Methoxycarbonyl-3-(3-quanidinopropyl)-1-phenylaminocarbonyl-2-azetidinone hydrochloride salt]	1700	8.3 × 10^4 m^-1 min^-1	5	30	
CC(=O)N1C(=O)[C@@H](CCCNC(=N)N)[C@@H]1S(=O)(=O)c1ccccc1 (relative stereo) [VI, trans-4-Phenylsulfonyl-3-guanidinopropyl-1-acetyl-2-azetidine hydrochloride salt]	3.2	3.0 × 10^6 m^-1 min^-1	750	15	
CCS[C@H]1[C@H](CCCNC(=N)N)C(=O)N1C(C)=O (relative stereo) [VII, trans-4-Ethylthio-3-quanidinopropyl-1-acetyl-2-azetidinone hydrochloride salt]	12.5	5.6 × 10^6 m^-1 min^-1	36	0.75	
CN(C)c1cccc2c(S(=O)(=O)N3C(=O)[C@@H](CCCNC(=N)N)[C@@H]3C(=O)N3CCCCC3)cccc12 (relative stereo) [XII, trans-4-(1-Piperidinocarbonyl)-3-guanidinooropyl-1-[(5-dimethylamino)-1-naphthalenesulfonyl]-2-azetidinone hydrochloride salt]	10	2.8 × 10^6 m^-1 min^-1	14	30	
Cc1ccc(S(=O)(=O)N2C(=O)[C@@H](CCCNC(=N)N)[C@@H]2C(=O)N2CCCCC2)cc1 (relative stereo) [XIII, trans-4-(1-Piperidinocarbonyl)-3-guanidinooropyl-1-p-toluenesulfonyl-2-azetidinone hydrochloride salt]	3	4.5 × 10^7 m^-1 min^-1	120	80	
CC(=O)N1C(=O)[C@@H](CCCNC(=N)N)[C@@H]1C(=O)O (relative stereo) [XIV, trans-4-Carboxy-3-quanidinopropyl-1-acetyl-2-azetidinone hydrochloride salt]	390		12	12	
CC(=O)N1C(=O)[C@@H](CCCNC(=N)N)[C@@H]1CCc1ccccc1 (relative stereo) [XV, trans-4-(2-Phenylethyl)-3-guanidinooropyl-1-acetyl-2azetidinone hydrochloride salt]	210	1.5 × 10^6 m^-1 min^-1	470	3	
CC(=O)N1C(=O)[C@@H](CCCNC(=N)N)[C@@H]1C(=O)Nc1ccc(C)cc1 (relative stereo) [XVI, trans-4-(4-Methylbenzeneaminocarbonyl)-3-guanidinopropyl-1-acetyl-2-azetidinone hydrochloride salt]	25	1.3 × 10^6 m^-1 min^-1	120	0.5	
CC(=O)OC1C(CCCNC(=N)N)C(=O)N1C(C)=O (stereo not drawn) [XX, 4-Acetyloxy-3-quanidinopropyl-1-acetyl-2-azetidinone hydrochloride salt]	12	4.2 × 10^7 m^-1 min^-1		0.34	12
